Experimental data from patent publication US7550469B2, “Heterocyclic amide derivatives and their use as dopamine D3 receptor ligands” (Aventis Pharmaceuticals Inc., priority 2001, dated 2009).

How the values were obtained:
[1] = test system: Alpha-1 adrenergic receptors from rat brain cortex; experiment: [3H]Prazosin binding to alpha-1 adrenergic receptors from rat brain cortex (Protocol 4); conditions: for r-α1 % Inh: r = rat, Inh @ 1 μM
Text: [^3H]Prazosin Binding to Alpha-1 Adrenergic Receptors from Rat Brain Cortex
Objective: This in vitro assay is designed as a screen to identify compounds displaying a affinity for the a, adrenoceptor subtype in membranes from rat cortex. It measures the ability of the test compounds to displace [^3H]prazosin from the α1 sites.
Membrane Preparation: Rat brain tissue can be obtained from either fresh (male Wistar rats; 200-250 g) or frozen (male Sprague-Dawley 200-250 g from Harlan; cat. #BT-403) stocks. The cortex is dissected, homogenized in 50 vol (wet weight) ice-cold 50 mM Tris buffer (pH 7.7 at 25° C.). The homogenate is centrifuged at 48,000 g for 10 min, the pellet is resuspended in 50 mM Tris buffer and centrifuged a second time. The second pellet (P2) is resuspended to yield a concentration of 115 mg wet weight per 10 ml. […] Membranes should be mixed just before addition to ensure an even suspension. […] This is diluted to a 0.5 mM stock in dH2O. Serial dilutions in Buffer A are made from which 50 μl additions to the plate are made in duplicate in order to achieve the final concentrations desired. Typically, one 96 well plate is used to evaluate 11 compounds at 4 concentrations (10^−6-10^−9 M) in duplicate. Total binding and nonspecific binding are determined in quadruplicate. Usually one standard is run with each assay. • [^3H]Prazosin is made up in Buffer A such that when 50 μl are added per well the final concentration is […] in a final assay volume of 200 μl. The final concentration should be verified by running a sample in a scintillation counter prior to adding the [^3H]prazosin to the 96 well plate. Note: The radioactivity should be prepared just before the additions are made so that it is not allowed to sit on the bench for very long. • Packard GF/B Plate Pretreatment: The filter plates are presoaked for at least 30 min in ice cold Buffer B containing 0.05% polyethyleneimine (200 μl/200 ml) to maximize filtration efficiency and minimize filter blank binding. • Incubation & Filtration: Once buffer, compounds, [^3H]prazosin and membrane have been added (and mixed), the 96 well plates are incubated for 40 min at 37° C. and spaced 3-5 min apart. At 40 min, the plates are filtered using a Tomtec Automated Cell Harvester. Filtration is immediately followed by washes of ice cold Buffer B (total vol. ˜7 ml). • Drying and Counting: Each filter plate is dried under a heat lamp for 15 min. The back of the plate is sealed and 40 μl of Packard microscint fluid are added per well. Using Packard film, each plate is heat sealed prior to being counted in a Packard Topcount Scintillation counter. A program has been written that counts each plate twice sending DPM, CPM and TSIS data to disk and printer. • Analysis of Results: Raw DPM and CPM data are captured on disk and are imported into one of several software packages (Graphpad Prism Ver 2.0, Excel) residing on the LAN. Specific binding is defined as the difference between total binding and the binding in the presence of 10 μM phentolamine. Total binding is less than 10% of the total added ligand. Software using one-site competition curve analysis is employed in the calculation of IC50 and KI (Cheng-Prusoff equation, 1973). The top and bottom of the non-linear regression are held constant at 0% and 100% inhibition. The percent inhibition at each drug concentration is the mean of duplicate determinations.

[2] = molecular target: T1, human dopamine D3 receptor (Homo sapiens, UniProt P35462); experiment: Microphysiometer test of functional activity in CHO cells expressing human dopamine D3 receptor (quinpirole-induced acidification rate); type: cell-based; conditions: test compound 10 nM, 100 nM, 1 uM; quinpirole 10 nM
T1 construct: expressed in transfected cells; host or cells: CHO cells
T1 sequence (P35462 whole entry): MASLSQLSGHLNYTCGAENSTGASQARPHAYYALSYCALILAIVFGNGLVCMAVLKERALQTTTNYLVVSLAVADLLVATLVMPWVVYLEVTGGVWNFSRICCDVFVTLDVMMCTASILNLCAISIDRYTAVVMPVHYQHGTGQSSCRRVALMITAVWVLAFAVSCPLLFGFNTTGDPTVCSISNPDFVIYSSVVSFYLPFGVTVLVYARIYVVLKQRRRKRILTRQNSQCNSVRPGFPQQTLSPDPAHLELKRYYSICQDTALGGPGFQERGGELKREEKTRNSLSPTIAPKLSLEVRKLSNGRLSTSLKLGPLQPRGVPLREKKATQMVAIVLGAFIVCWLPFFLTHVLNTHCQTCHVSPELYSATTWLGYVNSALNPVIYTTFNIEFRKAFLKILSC
Method: The functional activity of compounds of the invention (i.e. whether they are antagonists, agonists or partial agonists) can readily be determined using the microphysiometer test method that follows:
Chinese Hamster Ovary (CHO) cells, expressing the human dopamine D3 receptor, were grown on the surface of a capsule cup. Cups are assembled and placed on the microphysiometer, and buffer (Dulbecco's Modified Eagle's Medium without sodium bicarbonate and without serum) is perfused through the cup assembly until a stable baseline is achieved (4 hours). Buffer perfusion rate and solution changes are controlled by a computer. Intracellular acidification rate is measured in each of the 8 cup assemblies and recorded by the computer. Buffer containing test compound (10 nM, 100 nM, and 1 uM) is perfused through the cup assembly for 20 min. Buffer containing quinpirole (10 nM) (a D3 agonist) and test compound (same concentrations) is perfused for an additional 1 min. This is followed by a recovery period of 10-60 min where buffer alone was perfused through the cups. Quinpirole increases the rate of acidification. If the test compound is a D3 antagonist, this increase will be inhibited in a concentration dependent manner.

Compound | r-α1 % Inh [1] [%] | other results
O=C(NCCCCN1CCCN(c2csc3cc(F)ccc23)CC1)c1ccc(OC(F)(F)F)cc1 [compound 822152] | 14 | –
CCOc1ccc(C(=O)NCCCCN2CCN(c3csc4cc(C(F)(F)F)ccc34)CC2)cc1 [compound 815541] | – | functional activity at D3 (inhibition of quinpirole-induced increase of acidification rate) [2]: D3 antagonists
O=C(NCCCCN1CCCN(c2csc3cc(F)ccc23)CC1)c1cccc(F)c1 [compound 822154] | 0 | –
O=C(NCCCCN1CCN(c2csc3cc(C(F)(F)F)ccc23)CC1)c1cc2ccccc2s1 [814238A] | – | rat alpha 1 % I ([1]; @ 10 uM): 50% @ 10 uM

More lines, main results first:

r-α1 % Inh [1] [%] | Compound | other results
0 | CC(C)(C)c1ccc(C(=O)NCCCCN2CCCN(c3csc4cc(F)ccc34)CC2)cc1 [compound 822198] | –
41 | COc1ccccc1C(=O)NCCCCN1CCCN(c2csc3cc(F)ccc23)CC1 [compound 822157] | –
